± gives the standard deviation of the averaged measurements.
Columns and labels:
Test in all cases: level (log10 ratio to DMSO vehicle control); higher = higher biomarker level / cell amount than vehicle control
[1] = compound: OCCCC(F)(F)C(F)(F)C(F)(F)C(F)(F)C(F)(F)C(F)(F)C(F)(F)C(F)(F)F [3-(Perfluorooctyl)propanol]; settings: 6700 nM; in DMSO
Description: (§1)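 BioMAP Diversity Plus panel of 12 human primary cell co-culture systems (3C, 4H, LPS, SAg, BT, BF4T, BE3C, CASM3C, HDF3CGF, KF3CT, MyoF, Mphg). Compounds were added 1 h before stimulation and left for 24 h (MyoF 48 h; BT 72 h for soluble read-outs or 6 d for IgG). Biomarkers were read by ELISA, cytotoxicity by SRB, PBMC viability and proliferation by Alamar Blue. Each well value was divided by the mean of 8 DMSO control wells on the same plate and log10 transformed; duplicate blinded samples were tested at 4 concentrations.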

[2] = compound: C=CC(=O)OCCC(F)(F)C(F)(F)C(F)(F)C(F)(F)C(F)(F)C(F)(F)C(F)(F)C(F)(F)F [8:2 Fluorotelomer acrylate]; settings: in DMSO
Description: as §1

Methotrexate = compound: CN(Cc1cnc2nc(N)nc(N)c2n1)c1ccc(C(=O)N[C@@H](CCC(=O)O)C(=O)O)cc1 [Methotrexate]; settings: in DMSO
Description: as §1

[3] = compound: O=C(Cl)C(F)(F)C(F)(F)C(F)(F)C(=O)Cl [Hexafluoroglutaryl chloride]; settings: in DMSO
Description: as §1

[4] = compound: FC(F)(I)C(F)(F)C(F)(F)C(F)(F)C(F)(F)C(F)(F)I [1,6-Diiodoperfluorohexane]; settings: 6700 nM; in DMSO
Description: as §1

Perfluoropinacol = compound: OC(C(F)(F)F)(C(F)(F)F)C(O)(C(F)(F)F)C(F)(F)F [Perfluoropinacol]; settings: in DMSO
Description: as §1

Perfluorooctanoic acid = compound: O=C(O)C(F)(F)C(F)(F)C(F)(F)C(F)(F)C(F)(F)C(F)(F)C(F)(F)F [Perfluorooctanoic acid]; settings: in DMSO
Description: as §1

[5] = compound: Cc1ccc(S(=O)(=O)OCC(F)(F)C(F)(F)C(F)(F)C(F)(F)C(F)(F)C(F)F)cc1 [1H,1H,7H-Perfluoroheptyl 4-methylbenzenesulfonate]; settings: in DMSO
Description: as §1

Row | Test System | level (log10) [1] | level (log10) ([2]; 6700 nM) | level (log10) ([2]; 20000 nM) | level (log10) ([2]; 60000 nM) | level (log10) (Methotrexate; 1500 nM) | level (log10) (Methotrexate; 4400 nM) | level (log10) (Methotrexate; 13000 nM) | level (log10) (Methotrexate; 40000 nM) | level (log10) ([3]; 6700 nM) | level (log10) ([3]; 20000 nM) | level (log10) ([3]; 60000 nM) | level (log10) [4] | level (log10) (Perfluoropinacol; 6700 nM) | level (log10) (Perfluoropinacol; 20000 nM) | level (log10) (Perfluorooctanoic acid; 6700 nM) | level (log10) (Perfluorooctanoic acid; 20000 nM) | level (log10) (Perfluorooctanoic acid; 60000 nM) | level (log10) ([5]; 6700 nM) | level (log10) ([5]; 20000 nM) | level (log10) ([5]; 60000 nM)
1 | HDF3CGF:TIMP-1 | -0.105 ± 0.052 | -0.03 ± 0.02 | -0.0265 ± 0.022 | -0.011 ± 0.061 | -0.08 ± 0.073 | -0.047 ± 0.082 | -0.0525 ± 0.14 | -0.0755 ± 0.1 | 0.002 ± 0.014 | 0.012 ± 0.025 | 0.0395 ± 0.05 | -0.077 | 0.015 ± 0.027 | 0.0205 ± 0.032 | -0.015 ± 0.034 | -0.029 ± 0.0099 | 0.0155 ± 0.00071 | -0.026 ± 0.027 | -0.0285 ± 0.047 | -0.023 ± 0.025
2 | KF3CT:CCL2/MCP-1 | -0.077 ± 0.025 | -0.0265 ± 0.042 | -0.0415 ± 0.0092 | -0.0725 ± 0.04 | 0.052 ± 0.023 | -0.0125 ± 0.03 | -0.016 ± 0.024 | 0.0165 ± 0.0021 | -0.021 ± 0.016 | -0.007 ± 0.017 | 0.0075 ± 0.016 | -0.251 | 0.0955 ± 0.013 | 0.211 ± 0.024 | 0.005 ± 0.018 | 0.0145 ± 0.029 | -0.0785 ± 0.011 | 0.0035 ± 0.028 | -0.077 ± 0.025 | -0.009 ± 0.048
3 | HDF3CGF:M-CSF | -0.258 ± 0.0092 | -0.0205 ± 0.011 | -0.0375 ± 0.0021 | -0.0165 ± 0.013 | -0.051 ± 0.076 | -0.0445 ± 0.077 | -0.033 ± 0.1 | -0.0655 ± 0.17 | -0.003 ± 0.02 | -0.0035 ± 0.016 | 0 ± 0.0099 | -0.454 | -0.024 ± 0.055 | -0.239 ± 0.049 | -0.0205 ± 0.04 | 0.013 ± 0.0028 | 0.0235 ± 0.016 | -0.0385 ± 0.0021 | -0.0225 ± 0.036 | -0.0095 ± 0.013
4 | KF3CT:SRB | -0.053 | -0.0005 ± 0.005 | 0.002 ± 0.0085 | 0.0105 ± 0.013 | 0.0105 ± 0.012 | -0.002 ± 0.0057 | 0.0025 ± 0.0035 | 0.009 ± 0.021 | -0.0015 ± 0.005 | 0.005 ± 0.0014 | 0.0055 ± 0.0064 | -0.288 | -0.004 ± 0.0042 | -0.014 ± 0.02 | -0.005 ± 0.0014 | -0.003 ± 0.0014 | 0.007 ± 0.037 | -0.0215 ± 0.013 | -0.032 ± 0.011 | -0.0335 ± 0.0078
5 | CASM3C:M-CSF | -0.0325 ± 0.025 | 0.003 ± 0.0057 | 0.0095 ± 0.032 | 0.0185 ± 0.04 | 0.0285 ± 0.013 | -0.051 ± 0.027 | -0.0455 ± 0.0021 | -0.0275 ± 0.081 | -0.001 ± 0.0028 | 0.0095 ± 0.057 | 0.03 ± 0.051 | -0.042 | 0.0505 ± 0.0021 | 0.0315 ± 0.0092 | 0.0005 ± 0.012 | -0.004 ± 0.021 | 0.0145 ± 0.022 | -0.024 ± 0.0028 | -0.0445 ± 0.013 | 0.007 ± 0.051
6 | MyoF:PAI-I | -0.0075 ± 0.021 | -0.0055 ± 0.018 | -0.0105 ± 0.015 | -0.0355 ± 0.015 | -0.026 ± 0.072 | -0.011 ± 0.035 | 0.0015 ± 0.016 | -0.0185 ± 0.084 | -0.001 ± 0.0085 | 0.02 ± 0.013 | 0.01 ± 0.0042 | -0.053 | -0.0215 ± 0.012 | -0.0025 ± 0.00071 | -0.0225 ± 0.011 | -0.023 ± 0.024 | -0.0305 ± 0.029 | -0.007 ± 0.0085 | -0.0085 ± 0.013 | -0.019 ± 0.013
7 | CASM3C:CD87/uPAR | -0.021 ± 0.0085 | -0.035 ± 0.021 | -0.027 ± 0.011 | -0.004 ± 0.0014 | 0.0385 ± 0.037 | 0.033 ± 0.023 | 0.0585 ± 0.015 | 0.04 ± 0.048 | -0.014 ± 0.045 | -0.0225 ± 0.012 | -0.015 ± 0.038 | 0.001 | -0.0245 ± 0.015 | -0.107 ± 0.018 | -0.049 ± 0.047 | -0.021 ± 0.082 | -0.0035 ± 0.067 | -0.03 ± 0.024 | -0.02 ± 0.016 | -0.004 ± 0.0099
8 | BE3C:PAI-I | -0.008 ± 0.0014 | -0.0355 ± 0.0092 | -0.018 | 0.0055 ± 0.025 | -0.0595 ± 0.015 | -0.031 ± 0.045 | -0.051 ± 0.048 | -0.0665 ± 0.084 | -0.0285 ± 0.053 | -0.0715 ± 0.059 | -0.0935 ± 0.094 | 0.015 | -0.119 ± 0.016 | -0.189 ± 0.0085 | 0.001 ± 0.0042 | 0.0395 ± 0.013 | 0.041 ± 0.0028 | -0.0365 ± 0.019 | -0.0745 ± 0.016 | -0.057 ± 0.0099
9 | KF3CT:MMP-9 | -0.053 ± 0.0085 | -0.042 | -0.0885 ± 0.044 | -0.132 ± 0.047 | 0.017 ± 0.013 | -0.001 ± 0.014 | -0.0045 ± 0.04 | 0.0075 ± 0.019 | -0.0515 ± 0.013 | -0.0255 ± 0.028 | -0.024 ± 0.03 | -0.136 | 0.01 ± 0.018 | -0.0245 ± 0.029 | -0.0225 ± 0.026 | 0.003 ± 0.0099 | 0.028 ± 0.011 | -0.014 ± 0.031 | -0.073 ± 0.025 | -0.0915 ± 0.03
10 | KF3CT:TIMP-2 | -0.0255 ± 0.063 | -0.0125 ± 0.037 | -0.02 | 0.016 ± 0.013 | -0.029 ± 0.035 | -0.034 ± 0.069 | -0.0325 ± 0.06 | -0.0195 ± 0.088 | -0.029 ± 0.023 | 0.003 ± 0.0099 | 0.02 ± 0.034 | -0.022 | 0.013 ± 0.0085 | 0.0745 ± 0.0064 | -0.0195 ± 0.015 | 0.0025 ± 0.016 | 0.035 ± 0.038 | -0.0015 ± 0.005 | 0.0025 ± 0.029 | 0.017 ± 0.021
11 | KF3CT:CXCL10/IP-10 | -0.053 ± 0.02 | -0.007 ± 0.0057 | -0.0125 ± 0.0021 | -0.0135 ± 0.00071 | 0.0025 ± 0.018 | 0.0015 ± 0.011 | 0.004 ± 0.011 | -0.0005 ± 0.021 | -0.0105 ± 0.013 | 0.0045 ± 0.0035 | -0.0025 ± 0.015 | -0.005 | 0.0025 ± 0.0035 | -0.0205 ± 0.0064 | -0.006 ± 0.0042 | -0.01 ± 0.0042 | -0.0275 ± 0.0064 | -0.009 ± 0.014 | -0.0195 ± 0.0078 | -0.016 ± 0.0099
12 | lMphg:CCL2/MCP-1 | 0.0035 ± 0.016 | 0.0035 ± 0.021 | -0.0025 ± 0.0064 | -0.0235 ± 0.039 | 0.0115 ± 0.03 | 0.008 ± 0.035 | -0.0105 ± 0.033 | -0.0055 ± 0.021 | -0.005 ± 0.0099 | -0.0025 ± 0.019 | 0.0125 ± 0.015 | -0.029 | 0.0265 ± 0.028 | -0.148 ± 0.0014 | 0.018 ± 0.0071 | 0.036 ± 0.0028 | 0.025 ± 0.025 | -0.033 ± 0.0014 | -0.0345 ± 0.015 | -0.0055 ± 0.026
13 | HDF3CGF:EGFR | -0.31 ± 0.071 | -0.003 ± 0.041 | -0.028 ± 0.031 | 0.006 ± 0.011 | -0.0035 ± 0.018 | -0.008 ± 0.0099 | -0.011 ± 0.028 | -0.021 ± 0.027 | -0.0195 ± 0.012 | -0.0115 ± 0.011 | -0.01 ± 0.057 | -0.044 | -0.029 ± 0.057 | -0.146 ± 0.038 | -0.065 ± 0.086 | -0.086 ± 0.028 | -0.0965 ± 0.044 | -0.0165 ± 0.016 | -0.056 ± 0.0057 | -0.034 ± 0.0028

Reference: the supplement of paper PMC10331698
